Common to all, as to experiment: growth of human tumour cells (NCI), 48 h
Test [1] concerns ACHN renal.
Test [2] has as its system IGROV1 ovarian.
Test [3] has as its system LOX IMVI melanoma.
In test [4] the test system is MALME-3M melanoma.
Test [5] deals with MOLT-4 leukemia.
Test [6] relates to NCI-H23 lung.
Test [7] concerns OVCAR-5 ovarian.
The subject of test [8] is OVCAR-8 ovarian.
The subject of test [9] is SF-539 CNS.
Test [10] concerns UACC-62 melanoma.

Molecules are shown by their SMILES.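 Each compound was tested at five concentrations against cells in 96-well plates for 48 hours. Here, GI50 denotes the concentration required for 50% inhibition of growth. The concentration for full growth arrest is given as TGI.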

`Cc1cc2c(C(C)C)c(O)c(O)c(C=NCCO)c2c(O)c1-c1c(C)cc2c(C(C)C)c(O)c(O)c(C=NCCO)c2c1O`: the TGI was found to be 12.4 µM in test [1]; 6.38 µM in [2]; 3.11 µM in test [3]; 9.36 µM in test [4]; 2.46 µM in [5]; 4.16 µM in test [6]. In addition, the TGI in test [7] is 9.63 µM; in test [8], 21.9 µM; in test [9], 5.37 µM; in test [10] it was 6.15 µM.
Turning to `CCOc1ccc(/C(C=O)=C(\Cl)c2ccc(OC)c(OC)c2)cc1`, the TGI in test [1], in test [2], in test [3], in test [4], in [6] and in [8] was above 100 µM throughout. Also, the TGI in test [9] and in [10] was above 100 µM each time.
On to `CC(=O)O[C@H]1C=CC(=O)C(C)CC1C` (stereo not given in full), for which the TGI in [1], in test [2], in test [3], in test [4], in test [5] and in [6] was above 100 µM in each case. Besides, the TGI in test [7], in test [9] and in test [10] was above 100 µM throughout.
On to `CC(=O)OCC1=C(C(=O)O)C(c2ccc3c(c2)OCO3)c2cc3c(cc2O1)OCO3` (stereo not given), for which the TGI in test [1], in [2], in test [3], in test [4], in [5] and in test [6] was above 100 µM in each case. The TGI in [8], in test [9] and in [10] was above 100 µM in each case.
As to `CCCC(N)C(=O)c1ccccc1` (stereo not given), the TGI in test [1], in test [2], in test [3], in test [4], in test [6] and in test [7] was above 100 µM each time. Besides, the TGI in [8], in test [9] and in test [10] was above 100 µM throughout.
With `O=C(Nc1ccc(Sc2ccc(N=Nc3c(O)c(S(=O)(=O)O)cc4cc(S(=O)(=O)O)ccc34)cc2)cc1)c1ccc(N=Nc2c(O)ccc3c(S(=O)(=O)O)cc(S(=O)(=O)O)cc23)cc1`, the TGI in [1] is above 100 µM; in test [2], above 100 µM; in [3], 34.8 µM; in test [4] it was 72 µM; in test [5], 52.1 µM; in test [6], above 100 µM. Further, the TGI is above 100 µM in [7], above 100 µM in test [8], above 100 µM in test [9] and 49.7 µM in test [10].
Turning to `COc1ccc(-c2nn(-c3cccc(NC(=O)Nc4ccccc4)c3)cc2-c2ccncc2)cc1Cl`, the GI50 in test [2] was 2.73 µM; in test [3], 3.25 µM; in test [4], 1.89 µM; in test [5], 2.5 µM; in [6] it was 3.5 µM; in test [7], 2.5 µM. The results for the GI50 in test [8], in test [9] and in test [10] were 2.51 µM, 1.8 µM and 3.05 µM, respectively. Besides, the TGI in test [2] was 8.02 µM; in [3] it was 17 µM; in [4], 4.83 µM; in [5], 7.96 µM; in test [6], above 100 µM; in test [7], 8.79 µM. The TGI is 7.18 µM in test [8], 3.5 µM in test [9] and above 100 µM in test [10].
For the compound `COc1c2c(cc3c1OCO3)C13C=CC(OC)CC1N(CC3)C2` (stereo not given), the TGI in test [1], in test [2], in test [3], in [4], in test [5] and in test [6] was above 100 µM each time. Besides, the TGI in [7], in [8], in [9] and in [10] was above 100 µM in each case.
In the case of `Clc1ccc(CNc2nc(Cl)c3[nH]cnc3n2)cc1Cl`, the TGI in test [1], in test [2], in test [4], in [5], in test [6] and in [7] was above 100 µM throughout. The TGI was 99.2 µM in test [8], 45.2 µM in [9] and above 100 µM in [10].
Take `C=C1C(=O)O[C@@H]2[C@H]1CCC(C)=C1C=CC(=O)[C@]12C`: the TGI in test [1] amounted to 30 µM; in [2], 46.7 µM; in test [5], 39.4 µM; in test [7] it was 31.8 µM; in test [8], 36.1 µM; in test [9] it was 30 µM. Besides, the TGI in test [10] came out at 22.6 µM.
On to `CCC(=O)NC(Nc1cccc(F)c1)(C(F)(F)F)C(F)(F)F`, for which the TGI in [1], in test [2], in [3], in [5], in test [6] and in test [7] was above 100 µM in each case. The TGI in [8], in test [9] and in test [10] was above 100 µM in each case.
With `CC(=O)C=NCC(=O)O`, the TGI in test [1], in test [2], in [3], in [4], in test [5] and in [6] was above 100 µM each time. Also, the TGI in [7], in [8], in test [9] and in test [10] was above 100 µM throughout.
Take `NC1(C(=O)O)CCc2ccc(N(CCCl)CCCl)cc2C1` (stereo not given): the TGI in test [2] was above 100 µM; in test [3], above 100 µM; in [4], 2.2 µM; in test [5] it was 87 µM; in test [6], above 100 µM; in test [7], above 100 µM. Moreover, the TGI in [8], in test [9] and in [10] was above 100 µM each time.
As to `c1ccc(N=c2nc(N3CCOCC3)ss2)cc1`, the TGI in test [1] was 30.9 µM; in test [2], 52.7 µM; in test [3], 30.1 µM; in [4], 28.8 µM; in test [5], 37.1 µM; in test [6], above 100 µM. The TGI in test [7] stood at 52.1 µM; in test [8], 28.3 µM; in [9], 32.3 µM; in test [10], 27.5 µM.
With `Fc1ccc(-c2nn3c(-c4cc(C(F)(F)F)cc(C(F)(F)F)c4)nnc3s2)cc1`, the GI50 in test [2] was 1.66 µM; in test [5] it was above 50 µM; in test [6] it was 3.05 µM; in test [7], above 50 µM; in test [8] it was 1.77 µM; in test [9], 3.07 µM. In addition, the GI50 in test [10] is above 50 µM. In addition, the TGI in [2], in [5], in test [6], in test [7], in test [8] and in test [9] was above 50 µM in each case. This compound also returned a TGI in test [10] above 50 µM.
For the compound `N#CC(Nc1cccc(C(F)(F)F)c1)c1ccccc1C(F)(F)F` (stereo not given), the TGI came out at 27.6 µM in [1]; 38.1 µM in test [2]; 14.5 µM in test [3]; 18 µM in [4]; 40.5 µM in test [5]; 27.6 µM in test [6]. The TGI was found to be 28.4 µM in test [7], 33 µM in [8], 33.1 µM in test [9] and 31.4 µM in test [10].
As for `O=C(Nc1c(C(=O)NC2CCCCC2)[nH]c(=O)[nH]c1=O)c1ccc(Cl)cc1`, the TGI in test [1], in test [2], in [3], in test [4], in [5] and in [7] was above 100 µM throughout. Besides, the TGI in [8], in test [9] and in test [10] was above 100 µM each time.
